In patent publication US20250136556A1, “NOVEL MODULATORS OF THE ARYL HYDROCARBON RECEPTOR AND METHODS OF USE THEREOF” (Allianthera (Suzhou) Biopharmaceutical Co., Ltd., priority 2021, published 2025):

The molecules below were run against T1, Human Aryl Hydrocarbon Receptor (AHR) (Homo sapiens, UniProt P35869) (assay: AHR agonist reporter assay in human cell line (INDIGO luciferase reporter)). Conditions: reporter cells, 24 hours incubation, second line of cell; read-out: AHR abEC50.
T1 construct: purchased INDIGO Bioscience IB06001-32; host or cells: AHR Reporter Cell (proprietary kit cells)
T1 sequence (P35869 11-848): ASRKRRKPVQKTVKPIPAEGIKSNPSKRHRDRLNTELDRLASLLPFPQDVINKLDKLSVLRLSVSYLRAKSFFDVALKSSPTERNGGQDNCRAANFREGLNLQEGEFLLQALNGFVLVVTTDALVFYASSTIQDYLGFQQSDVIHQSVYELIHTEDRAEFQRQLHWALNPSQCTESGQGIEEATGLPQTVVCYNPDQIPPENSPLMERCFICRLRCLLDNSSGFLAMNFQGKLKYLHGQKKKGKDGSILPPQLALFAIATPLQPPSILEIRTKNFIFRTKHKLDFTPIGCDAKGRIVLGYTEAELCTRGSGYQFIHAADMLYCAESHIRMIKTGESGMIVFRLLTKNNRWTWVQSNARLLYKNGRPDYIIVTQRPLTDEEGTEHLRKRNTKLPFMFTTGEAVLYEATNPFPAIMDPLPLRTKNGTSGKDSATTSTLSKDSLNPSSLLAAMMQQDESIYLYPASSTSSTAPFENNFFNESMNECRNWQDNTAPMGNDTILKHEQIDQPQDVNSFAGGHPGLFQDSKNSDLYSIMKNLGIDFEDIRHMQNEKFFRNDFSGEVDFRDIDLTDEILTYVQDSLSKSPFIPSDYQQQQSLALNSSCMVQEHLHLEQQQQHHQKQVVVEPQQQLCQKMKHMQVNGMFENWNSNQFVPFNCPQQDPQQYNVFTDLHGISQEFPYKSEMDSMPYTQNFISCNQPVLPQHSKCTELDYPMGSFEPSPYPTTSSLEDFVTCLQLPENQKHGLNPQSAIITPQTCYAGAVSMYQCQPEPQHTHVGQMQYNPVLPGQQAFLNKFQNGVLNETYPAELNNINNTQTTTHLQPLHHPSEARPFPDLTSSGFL
Type: cell-based
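Also: firefly luciferase luminescence read on a plate reader, values normalized against positive and negative controls.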
Procedure: The AHR reporter assay was performed following the protocol of the Human Aryl Hydrocarbon Receptor (AHR) Reporter Assay System (INDIGO Bioscience, #IB06001-32). AHR Reporter Cell was thawed and pre-incubated in Cell Recovery Medium (CRM) for 6 hours. […] Following 24 hours incubation, the media was removed and Luciferase Detection Reagent (LDR) added. The firefly luciferase activity was quantified using a plate reader. Results were normalized by positive and negative controls.

| SMILES | EC50 |
| --- | --- |
| CC(C)c1c(O)cc(-c2cncc3ccc(F)cc23)cc1O [Compound 32] | > 0.1 µM |
| CC(C)c1c(O)cc(-c2cc3cnccc3cc2F)cc1O [Compound 34] | > 0.1 µM |
| CC(C)c1c(O)cc(-c2cc(F)c3nccnc3c2)cc1O [Compound 36] | > 0.1 µM |
| CC(C)c1c(O)cc(-c2c(Cl)cc3c(O)ncnc3c2F)cc1O [Compound 38] | > 0.1 µM |
| CC(C)c1c(O)cc(-c2ccc3nccnc3c2)cc1O [Compound 40] | > 0.1 µM |
| CC(C)c1c(O)cc(-c2ccc3ncnc(N)c3c2)cc1O [Compound 42] | > 0.1 µM |
| CC(C)c1c(O)cc(-c2nccc3cccnc23)cc1O [Compound 44] | > 0.1 µM |
| CC(C)c1ncc(-c2cc(C(F)(F)F)c3cc(F)ccc3n2)cc1O [Compound 52] | > 0.1 µM |
| CC(C)c1ncc(-c2cnc3c(F)cc(N)cc3c2)cc1O [Compound 53] | > 0.1 µM |
| CC(C)c1ncc(-c2ccnc3c(F)cccc23)cc1O [Compound 54] | > 0.1 µM |
| CC(C)c1ncc(-c2ccnc3ccc(F)cc23)cc1O [Compound 55] | > 0.1 µM |
| CC(C)c1ncc(-c2cc(F)c3ncccc3c2)cc1O [Compound 57] | > 0.1 µM |
| CC(C)c1ncc(-c2cc3cccnc3cc2F)cc1O [Compound 58] | > 0.1 µM |
| CC(C)c1ncc(-c2ccc3nccc(F)c3c2)cc1O [Compound 59] | > 0.1 µM |
| CC(C)c1ncc(-c2ccc3cc(F)ccc3n2)cc1O [Compound 60] | > 0.1 µM |
| CC(C)c1ncc(-c2ccc3ncccc3c2F)cc1O [Compound 61] | > 0.1 µM |
| CC(C)c1ncc(-c2cc(F)c3ncccc3c2F)cc1O [Compound 63] | > 0.1 µM |
| CC(C)c1ncc(-c2ccc(F)c3ccc(C(F)(F)F)nc23)cc1O [Compound 64] | > 0.1 µM |
| CC(C)c1ncc(-c2ccnc3c(Cl)cccc23)cc1O [Compound 68] | > 0.1 µM |
| COc1cc(-c2cnc(C(C)C)c(O)c2)cc2cccnc12 [Compound 69] | > 0.1 µM |
| CC(C)c1ncc(-c2cccc3ncccc23)cc1O [Compound 71] | > 0.1 µM |
| COc1cc2ncccc2cc1-c1cnc(C(C)C)c(O)c1 [Compound 72] | > 0.1 µM |
| Cc1ccnc2cc(-c3cnc(C(C)C)c(O)c3)ccc12 [Compound 73] | > 0.1 µM |
| CC(C)c1ncc(-c2cccc3ccc(C(=O)O)nc23)cc1O [Compound 76] | > 0.1 µM |

| SMILES | EC50 |
| --- | --- |
| Cc1cnc2ccc(-c3cnc(C(C)C)c(O)c3)cc2c1 [Compound 77] | > 0.1 µM |
| COc1ccc2ccc(-c3cnc(C(C)C)c(O)c3)cc2n1 [Compound 78] | > 0.1 µM |
| CC(C)c1ncc(-c2cc3ccccc3nc2C#N)cc1O [Compound 79] | > 0.1 µM |
| CC(C)c1ncc(-c2ccc3nccc(C#N)c3c2)cc1O [Compound 81] | > 0.1 µM |
| CC(C)c1ncc(-c2cncc3ccc(F)cc23)cc1O [Compound 83] | > 0.1 µM |
| CC(C)c1ncc(-c2cc3cnccc3cc2F)cc1O [Compound 85] | > 0.1 µM |
| CC(C)c1ncc(-c2c(Cl)cc3c(O)ncnc3c2F)cc1O [Compound 89] | > 0.1 µM |
| CC(C)c1ncc(-c2cc(F)c3cnc(N)nc3c2)cc1O [Compound 90] | > 0.1 µM |
| CC(C)c1ncc(-c2ccc3nccnc3c2)cc1O [Compound 91] | > 0.1 µM |
| CC(C)c1ncc(-c2ncnc3ccccc23)cc1O [Compound 92] | > 0.1 µM |
| Cc1ccnc2c(-c3cnc(C(C)C)c(O)c3)ccnc12 [Compound 94] | > 0.1 µM |
| CC(C)c1ncc(-c2nccc3cccnc23)cc1O [Compound 95] | > 0.1 µM |
| CC(C)c1ncc(-c2cnc3c(F)c(F)ccc3c2)cc1O [Compound 96] | > 0.1 µM |
| CC(C)n1c(O)cc(/C=C/c2ccccc2)cc1=O [Compound 105, (E)-6-hydroxy-1-isopropyl-4-styrylpyridin-2(1H)-one] | > 0.4 µM |
| CC(C)c1onc(/C=C/c2ccccc2)c1O [Compound 109, 5-isopropyl-3-[(E)-2-phenylethenyl]-1,2-oxazol-4-ol] | > 0.1 µM |
| CC(C)c1ncc(/C=C/c2ccccc2)cc1N [Compound 117, 2-isopropyl-5-[(E)-2-phenylethenyl]pyridin-3-amine] | > 0.1 µM |
| CC(C)c1ncc(-c2cnc3ccccc3c2)cc1N [Compound 120, 2-isopropyl-5-(quinolin-3-yl) pyridin-3-amine] | > 0.1 µM |
| CC(C)c1nc2c(cc1O)CC(c1ccccc1)O2 (centres unmarked) [Compound 127, 6-isopropyl-2-phenyl-2H,3H-furo[2,3-b]pyridin-5-ol] | > 0.1 µM |
| CC(C)c1c(O)cc(Sc2ccccc2)cc1O [Compound 129, 2-isopropyl-5-(phenylthio) benzene-1,3-diol] | > 0.4 µM |
| CC(C)c1c(O)cc([S+]([O-])c2ccccc2)cc1O (centres unmarked) [Compound 130, 2-isopropyl-5-(phenylsulfinyl) benzene-1,3-diol] | > 0.4 µM |
| CC(C)c1c(O)cc(S(=O)(=O)c2ccccc2)cc1O [Compound 131, 2-isopropyl-5-(phenylsulfonyl)benzene-1,3-diol] | > 0.4 µM |
| CC(C)c1c(O)cc(Oc2ccccc2)cc1O [Compound 132, 2-isopropyl-5-phenoxybenzene-1,3-diol] | > 0.4 µM |
| CC(C)c1ncc(/C=C/c2ccccn2)cc1O [Compound 136] | > 0.1 µM |

Continued, values first:

| EC50 | SMILES |
| --- | --- |
| 0.0252 µM | CC(C)c1c(O)cc(-c2cc(C(F)(F)F)c3cc(F)ccc3n2)cc1O [Compound 1] |
| > 0.1 µM | CC(C)c1c(O)cc(-c2cnc3c(F)cc(N)cc3c2)cc1O [Compound 2] |
| > 0.1 µM | CC(C)c1c(O)cc(-c2ccnc3c(F)cccc23)cc1O [Compound 3] |
| > 0.1 µM | CC(C)c1c(O)cc(-c2ccnc3ccc(F)cc23)cc1O [Compound 4] |
| 0.0787 µM | CC(C)c1c(O)cc(-c2cccc3cc(F)c(O)nc23)cc1O [Compound 5] |
| 0.109 µM | CC(C)c1c(O)cc(-c2cc(F)c3ncccc3c2)cc1O [Compound 6] |
| > 0.1 µM | CC(C)c1c(O)cc(-c2cc3cccnc3cc2F)cc1O [Compound 7] |
| > 0.1 µM | CC(C)c1c(O)cc(-c2ccc3nccc(F)c3c2)cc1O [Compound 8] |
| 0.0209 µM | CC(C)c1c(O)cc(-c2ccc3cc(F)ccc3n2)cc1O [Compound 9] |
| 0.0334 µM | CC(C)c1c(O)cc(-c2ccc3ncccc3c2F)cc1O [Compound 10] |
| > 0.1 µM | CC(C)c1c(O)cc(-c2cnc3ccc(F)cc3c2)cc1O [Compound 11] |
| > 0.1 µM | CC(C)c1c(O)cc(-c2cc(F)c3ncccc3c2F)cc1O [Compound 12] |
| > 0.1 µM | CC(C)c1c(O)cc(-c2ccc(F)c3ccc(C(F)(F)F)nc23)cc1O [Compound 13] |
| > 0.1 µM | CC(C)c1c(O)cc(-c2cc(O)cc3cccnc23)cc1O [Compound 15] |
| > 0.1 µM | CNc1ccnc2ccc(-c3cc(O)c(C(C)C)c(O)c3)cc12 [Compound 16] |
| > 0.1 µM | CC(C)c1c(O)cc(-c2ccnc3c(Cl)cccc23)cc1O [Compound 17] |
| > 0.1 µM | COc1cc(-c2cc(O)c(C(C)C)c(O)c2)cc2cccnc12 [Compound 18] |

| EC50 | SMILES |
| --- | --- |
| > 0.1 µM | CC(C)c1c(O)cc(-c2cccc3ncccc23)cc1O [Compound 20] |
| > 0.1 µM | COc1cc2ncccc2cc1-c1cc(O)c(C(C)C)c(O)c1 [Compound 21] |
| > 0.1 µM | CC(C)c1c(O)cc(-c2cnc3cccc(O)c3c2)cc1O [Compound 23] |
| > 0.1 µM | CC(C)c1c(O)cc(-c2cc(N)c3ccccc3n2)cc1O [Compound 24] |
| > 0.1 µM | CC(C)c1c(O)cc(-c2cccc3ccc(C(=O)O)nc23)cc1O [Compound 25] |
| > 0.1 µM | Cc1cnc2ccc(-c3cc(O)c(C(C)C)c(O)c3)cc2c1 [Compound 26] |
| > 0.1 µM | COc1ccc2ccc(-c3cc(O)c(C(C)C)c(O)c3)cc2n1 [Compound 27] |
| > 0.1 µM | CC(C)c1c(O)cc(-c2cc3ccccc3nc2C#N)cc1O [Compound 28] |
| > 0.1 µM | CC(C)c1c(O)cc(-c2ccc3nccc(C#N)c3c2)cc1O [Compound 30] |
| 0.0389 µM | CC(C)c1c(O)cc(-c2cnc3c(F)c(F)ccc3c2)cc1O [Compound 45] |
| 0.09 µM | CC(C)c1c(O)cc(-c2cnc3c(C(F)(F)F)cccc3c2)cc1O [Compound 51] |
| 0.0944 µM | CC(C)c1ncc(-c2nc3ccccc3[nH]2)cc1O [Compound 101] |
| 0.143 µM | CC(=O)c1c(O)cc(/C=C/c2ccccc2)cc1O [Compound 108] |
| 0.101 µM | CC(C)c1ncc(-c2nc3ccccc3[nH]2)cc1N [Compound 134] |
| < 0.008 µM | COc1cc(/C=C/c2ccccc2)cc(O)c1C(C)C [Compound 137] |
| 0.0171 µM | FC(F)(F)c1ccc(Nc2nccc(-c3cccc(Cl)c3)n2)cc1 [Reference, reference compound] |
